For test [1], the system named is IFN-β secretion in THP1 cells. Kind of test: IFN-β secretion in THP1 cell culture (5 h). The test is classed as cell-based, human. In outline:
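THP1 cells incubated with compound for 5 h at 37 °C, 5% CO2, and secreted IFN-β in supernatant quantified by AlphaLISA. Percent effect normalised to 30 uM cGAMP positive control and 0.3% DMSO. EC50 from 4-parameter fit.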

For the next test, the target named is full-length HAQ STING (Homo sapiens (Human), UniProt Q86WV6, G230A/H232R/R293Q/R71H). The test is described as follows: 3H-cGAMP filtration binding assay (HAQ STING). Particulars: competition with tritiated cGAMP, HAQ STING membrane. In outline:
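Competition binding of compounds against 8 nM [3H]cGAMP working stock on Hi-Five cell membranes overexpressing full-length HAQ STING; compound and membrane preincubated 60 min at RT before ligand addition. Bound radioactivity read by filtration and scintillation counting; percent activity normalized to controls, EC50 from 4-parameter fit.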

[2] abbreviates: IFN-β secretion in THP1 cell culture, 5 h, compound at 30 μM, percent activation relative to 2′3′-cGAMP.
The mark [3] stands for this setting: read-out: EC50 (nM), 3H-cGAMP filtration binding assay for HAQ STING.
[4] abbreviates: EC50 (nM), 3H-cGAMP filtration binding assay for HAQ STING.

Where two headings read alike, the source gives them in different places.

Chain of full-length HAQ STING (Q86WV6 other isoform, or with tags, fused parts or gaps, stated change not applied): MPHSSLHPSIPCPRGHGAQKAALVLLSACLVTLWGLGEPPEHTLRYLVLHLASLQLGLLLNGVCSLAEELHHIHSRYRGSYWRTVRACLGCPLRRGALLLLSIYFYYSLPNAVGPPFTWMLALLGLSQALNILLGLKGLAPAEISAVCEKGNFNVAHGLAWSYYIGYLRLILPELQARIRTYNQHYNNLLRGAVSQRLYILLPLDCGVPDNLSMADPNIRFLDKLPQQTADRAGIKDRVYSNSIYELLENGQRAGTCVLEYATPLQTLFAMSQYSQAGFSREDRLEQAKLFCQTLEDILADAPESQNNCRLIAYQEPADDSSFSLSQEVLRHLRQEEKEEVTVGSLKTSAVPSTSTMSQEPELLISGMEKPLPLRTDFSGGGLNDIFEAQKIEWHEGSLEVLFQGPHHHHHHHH

`Nc1nc2c(ncn2[C@@H]2O[C@@H]3COP(=O)(O)O[C@H]4[C@@H](O)[C@H](n5cnc6c(N)ncnc65)O[C@@H]4COP(=O)(O)O[C@@H]2[C@@H]3N)c(=O)[nH]1` [Example 75, 2-Amino-9-[(5S,7R,8R,12aR,14R,15R,15aS,16R)-16-amino-14-(6-amino-9H-purin-9-yl)-2,10,15-trihydroxy-2,10-dioxidooctahydro-12H-5,8-methanofuro[3,2-l][1,3,6,9,11,2,10]pentaoxadiphosphacyclotetradecin-7-yl]-1,9-dihydro-6H-purin-6-one]: the “% Effect at 30 μM relative to 2′3′-cGAMP” value in test [1] (setting [2]) was determined as 96%. The EC50 at full-length HAQ STING (setting [3]) was found to be 2.6 nM.
For `Nc1nc2c(ncn2[C@@H]2O[C@@H]3COP(=O)(S)O[C@H]4[C@H](F)[C@H](n5cnc6c(=O)[nH]cnc65)O[C@@H]4COP(=O)(S)O[C@@H]2C3)c(=O)[nH]1` (single isomer, unassigned) [Example 317] the same measures were 107% and less than 1 nM.
On to `Nc1nc2c(ncn2[C@@H]2O[C@@H]3COP(O)(=S)O[C@H]4C[C@H](n5cnc6c(=O)[nH]cnc65)O[C@@H]4COP(O)(=S)O[C@@H]2[C@@H]3F)c(=O)[nH]1` (single isomer, unassigned) [Example 305], for which the “% Effect at 30 μM relative to 2′3′-cGAMP” value in test [1] was found to be 50%. For the same compound, at full-length HAQ STING (setting [4]), the EC50 worked out at 326 nM.
Regarding `Nc1ncnc2c1ncn2[C@@H]1O[C@@H]2COP(=O)(O)O[C@H]3[C@@H](F)[C@H](n4cnc5c(=O)[nH]cnc54)O[C@@H]3COP(=O)(O)O[C@@H]1[C@@H]2O` [Example 292, 9-[(5R,7R,8R,12aR,14R,15R,15aR,16R)-7-(6-amino-9H-purin-9-yl)-15-fluoro-2,10,16-trihydroxy-2,10-dioxidooctahydro-12H-5,8-methanofuro[3,2-l][1,3,6,9,11,2,10]pentaoxadiphosphacyclotetradecin-14-yl]-1,9-dihydro-6H-purin-6-one], the “% Effect at 30 μM relative to 2′3′-cGAMP” value in test [1] (setting [2]) is reported as 114%. Further, the EC50 at full-length HAQ STING (setting [3]) was 2.6 nM.
For `Nc1ncnc2c1ncn2[C@@H]1O[C@@H]2COP(=O)(O)O[C@@H]3C[C@@H](COP(=O)(O)O[C@H]2[C@H]1O)O[C@H]3n1cnc2c(=O)[nH]cnc21` [Example 50, 9-[(5S,7R,8R,12aR,14R,15R,15aS)-14-(6-amino-9H-purin-9-yl)-2,10,15-trihydroxy-2,10-dioxidooctahydro-12H-5,8-methanofuro[3,2-l][1,3,6,9,11,2,10]pentaoxadiphosphacyclotetradecin-7-yl]-1,9-dihydro-6H-purin-6-one] the same measures were 85% and 2.7 nM.
Consider `CCc1ncnc2c1ncn2[C@@H]1O[C@@H]2COP(=O)(O)O[C@@H]3[C@H](O)[C@@H](COP(=O)(O)O[C@H]2[C@H]1O)O[C@H]3n1cnc2c(=O)[nH]c(N)nc21` [Example 56, 2-amino-9-[(5R,7R,8R,12aR,14R,15R,15aS,16R)-14-(6-ethyl-9H-purin-9-yl)-2,10,15,16-tetrahydroxy-2,10-dioxidooctahydro-12H-5,8-methanofuro[3,2-l][1,3,6,9,11,2,10]pentaoxadiphosphacyclotetradecin-7-yl]-1,9-dihydro-6H-purin-6-one], for which the “% Effect at 30 μM relative to 2′3′-cGAMP” value in test [1] (setting [2]) turned out to be 64%. On full-length HAQ STING (setting [3]), the EC50 was 89.4 nM.
Consider `Nc1nc2c(ncn2[C@@H]2O[C@@H]3COP(O)(=S)O[C@H]4[C@H](F)[C@H](n5cnc6c(=O)[nH]cnc65)O[C@@H]4COP(=O)(O)O[C@@H]2[C@@H]3F)c(=O)[nH]1` (stereo partly drawn) [Example 303, 2-amino-9-[(5R,7R,8S,12aR,14R,15S,15aR,16R)-15,16-difluoro-2,10-dihydroxy-10-oxido-14-(6-oxo-1,6-dihydro-9H-purin-9-yl)-2-sulfidooctahydro-12H-5,8-methanofuro[3,2-l][1,3,6,9,11,2,10]pentaoxadiphosphacyclotetradecin-7-yl]-1,9-dihydro-6H-purin-6-one], for which, in test [1], the “% Effect at 30 μM relative to 2′3′-cGAMP” value was 106%. The EC50 at full-length HAQ STING (setting [3]) is less than 1 nM.
Regarding `N#Cc1cn([C@@H]2O[C@@H]3COP(=O)(O)O[C@@H]4[C@H](O)[C@@H](COP(=O)(O)O[C@H]3[C@H]2O)O[C@H]4n2cnc3c(=O)[nH]c(N)nc32)c2ncnc(N)c12` [Example 60, 4-amino-7-[(5R,7R,8R,12aR,14R,15R,15aS,16R)-7-(2-amino-6-oxo-1,6-dihydro-9H-purin-9-yl)-2,10,15,16-tetrahydroxy-2,10-dioxidooctahydro-12H-5,8-methanofuro[3,2-l][1,3,6,9,11,2,10]pentaoxadiphosphacyclotetradecin-14-yl]-7H-pyrrolo[2,3-d]pyrimidine-5-carbonitrile], the “% Effect at 30 μM relative to 2′3′-cGAMP” value in test [1] (setting [2]) came out at 12%. Moreover, the EC50 on full-length HAQ STING (setting [3]) turned out to be 42.5 nM.
In the case of `Nc1nc2c(ncn2[C@@H]2O[C@@H]3COP(=O)(O)O[C@H]4[C@H](Cl)[C@H](n5cnc6c(N)ncnc65)O[C@@H]4COP(=O)(O)O[C@@H]2[C@@H]3O)c(=O)[nH]1` [Example 15, 2-amino-9-[(5R,7R,8R,12aR,14R,15S,15aR,16R)-14-(6-amino-9H-purin-9-yl)-15-chloro-2,10,16-trihydroxy-2,10-dioxidooctahydro-12H-5,8-methanofuro[3,2-l][1,3,6,9,11,2,10]pentaoxadiphosphacyclotetradecin-7-yl]-1,9-dihydro-6H-purin-6-one], in test [1] (setting [2]), the “% Effect at 30 μM relative to 2′3′-cGAMP” value is given as 39%. For the same compound, the EC50 at full-length HAQ STING (setting [3]) was 378 nM.
For `C[C@H]1OP(=O)(O)O[C@@H]2C[C@@H](COP(=O)(O)O[C@H]3[C@@H](O)[C@H](n4cnc5c(N)ncnc54)O[C@@H]31)O[C@H]2n1cnc2c(=O)[nH]c(N)nc21` [Example 16, 2-amino-9-[(5S,7R,8R,12R,12aR,14R,15R,15aS)-14-(6-amino-9H-purin-9-yl)-2,10,15-trihydroxy-12-methyl-2,10-dioxidooctahydro-12H-5,8-methanofuro[3,2-l][1,3,6,9,11,2,10]pentaoxadiphosphacyclotetradecin-7-yl]-1,9-dihydro-6H-purin-6-one] the same measures were 57% and 12.4 nM.
For `Nc1nc2c(ccn2[C@@H]2O[C@@H]3COP(=O)(O)O[C@H]4[C@@H](O)[C@H](n5cnc6c(N)ncnc65)O[C@@H]4COP(=O)(O)O[C@@H]2[C@@H]3O)c(=O)[nH]1` [Example 30, 2-amino-7-[(5R,7R,8R,12aR,14R,15R,15aS,16R)-14-(6-amino-9H-purin-9-yl)-2,10,15,16-tetrahydroxy-2,10-dioxidooctahydro-12H-5,8-methanofuro[3,2-l][1,3,6,9,11,2,10]pentaoxadiphosphacyclotetradecin-7-yl]-3,7-dihydro-4H-pyrrolo[2,3-d] pyrimidin-4-one] the same measures were 131% and 91 nM.
Take `COCCc1ncnc2c1ncn2[C@@H]1O[C@@H]2COP(=O)(O)O[C@@H]3[C@H](O)[C@@H](COP(=O)(O)O[C@H]2[C@H]1O)O[C@H]3n1cnc2c(=O)[nH]c(N)nc21` [Example 57, 2-amino-9-{(5R,7R,8R,12aR,14R,15R,15aS,16R)-2,10,15,16-tetrahydroxy-14-[6-(2-methoxyethyl)-9H-purin-9-yl]-2,10-dioxidooctahydro-12H-5,8-methanofuro[3,2-l][1,3,6,9,11,2,10]pentaoxadiphosphacyclotetradecin-7-yl}-1,9-dihydro-6H-purin-6-one]: the “% Effect at 30 μM relative to 2′3′-cGAMP” value in test [1] (setting [2]) came to 7%. Moreover, the EC50 at full-length HAQ STING (setting [3]) was 438 nM.
Consider `Nc1nc2c(ncn2[C@@H]2O[C@@H]3CO[P@@](=O)(S)O[C@H]4C[C@H](n5cnc6c(=O)[nH]cnc65)O[C@@H]4CO[P@@](=O)(S)O[C@@H]2[C@@H]3F)c(=O)[nH]1` (single isomer, unassigned) [Example 307], for which the “% Effect at 30 μM relative to 2′3′-cGAMP” value in test [1] is recorded as 174%. This compound showed an EC50 on full-length HAQ STING (setting [4]) of less than 1 nM.
With `Nc1nc2c(ncn2[C@@H]2O[C@@H]3COP(=O)(O)O[C@H]4[C@H](Cl)[C@H](n5cnc6c(=O)[nH]cnc65)O[C@@H]4COP(=O)(O)O[C@@H]2[C@@H]3O)c(=O)[nH]1` [Example 322, 2-amino-9-[(5R,7R,8R,12aR,14R, 15S,15aR,16R)-15-chloro-2,10,16-trihydroxy-2,10-dioxido-14-(6-oxo-1,6-dihydro-9H-purin-9-yl)octahydro-12H-5,8-methanofuro[3,2-l][1,3,6,9,11,2,10]pentaoxadiphosphacyclotetradecin-7-yl]-1,9-dihydro-6H-purin-6-one], in test [1] (setting [2]), the “% Effect at 30 μM relative to 2′3′-cGAMP” value worked out at 41%. Further, the EC50 at full-length HAQ STING (setting [3]) was found to be 68.8 nM.
For `Nc1ncnc2c1ncn2[C@@H]1O[C@@H]2COP(=O)(O)O[C@@H]3[C@H](O)[C@@H](COP(=O)(O)O[C@H]2[C@H]1O)O[C@H]3c1n[nH]c2c(=O)[nH]cnc12` [Example 74, 3-[(5R,7S,8R,12aR,14R,15R,15aS,16R)-14-(6-amino-9H-purin-9-yl)-2,10,15,16-tetrahydroxy-2,10-dioxidooctahydro-12H-5,8-methanofuro[3,2-l][1,3,6,9,11,2,10]pentaoxadiphosphacyclotetradecin-7-yl]-1,6-dihydro-7H-pyrazolo[4,3-d]pyrimidin-7-one] the same measures were 57% and 5.8 nM.
Turning to `Nc1nc2c(ncn2[C@@H]2O[C@@H]3COP(=O)(O)O[C@H]4[C@@H](O)[C@H](c5n[nH]c6c(N)ncnc56)O[C@@H]4COP(=O)(O)O[C@@H]2[C@@H]3O)c(=O)[nH]1` [Example 49, 2-amino-9-[(5R,7R,8R,12aR,14S,15S,15aS,16R)-14-(7-amino-1H-pyrazolo[4,3-d]pyrimidin-3-yl)-2,10,15,16-tetrahydroxy-2,10-dioxidooctahydro-12H-5,8-methanofuro[3,2-l][1,3,6,9,11,2,10]pentaoxadiphosphacyclotetradecin-7-yl]-1,9-dihydro-6H-purin-6-one], the “% Effect at 30 μM relative to 2′3′-cGAMP” value in test [1] (setting [2]) is recorded as 74%. At full-length HAQ STING (setting [3]), the EC50 amounted to 30 nM.

Values taken from patent US11453697B1, “Cyclic di-nucleotide compounds as sting agonists” (Merck Sharp & Dohme Corp., priority 2015, dated 2022).
